Results from paper PMC9030254, “Target Hopping from Protein Kinases to PXR: Identification of Small-Molecule Protein Kinase Inhibitors as Selective Modulators of Pregnane X Receptor from TüKIC Library” (Cells, 2022).

Assays:
Assay in all cases: Kinase profiling
Assay type in all cases: biochemical
MST4 = biological target: T1, MST4 (Homo sapiens, UniProt Q9P289)
T1 construct: purchased ProQinase (Freiburg, Germany)
Description: (§1) The analysis was performed by ProQinase (Freiburg, Germany).

PIM3 = biological target: T2, PIM3 (Homo sapiens, UniProt Q86V86)
T2 construct: purchased ProQinase (Freiburg, Germany)
Description: as §1

HIPK4 = biological target: T3, HIPK4 (Homo sapiens, UniProt Q8NE63)
T3 construct: purchased ProQinase (Freiburg, Germany)
T3 sequence (Q8NE63 1-616): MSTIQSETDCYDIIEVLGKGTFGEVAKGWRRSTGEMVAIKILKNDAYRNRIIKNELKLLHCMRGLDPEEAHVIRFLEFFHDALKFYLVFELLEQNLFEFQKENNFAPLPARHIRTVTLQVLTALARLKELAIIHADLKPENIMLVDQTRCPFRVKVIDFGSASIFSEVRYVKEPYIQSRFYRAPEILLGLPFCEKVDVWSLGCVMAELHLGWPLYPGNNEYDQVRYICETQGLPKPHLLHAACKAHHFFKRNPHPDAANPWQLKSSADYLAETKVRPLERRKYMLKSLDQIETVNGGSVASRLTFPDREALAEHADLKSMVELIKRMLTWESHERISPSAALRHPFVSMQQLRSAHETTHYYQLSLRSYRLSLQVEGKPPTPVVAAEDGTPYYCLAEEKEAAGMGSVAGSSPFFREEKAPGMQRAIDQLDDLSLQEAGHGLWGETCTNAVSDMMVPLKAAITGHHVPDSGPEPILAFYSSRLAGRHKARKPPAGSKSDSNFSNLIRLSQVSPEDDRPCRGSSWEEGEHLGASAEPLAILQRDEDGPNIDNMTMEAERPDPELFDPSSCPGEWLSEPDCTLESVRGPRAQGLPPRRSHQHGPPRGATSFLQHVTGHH
Description: as §1

NEK3 = biological target: T4, NEK3 (Homo sapiens, UniProt P51956)
T4 construct: purchased ProQinase (Freiburg, Germany)
T4 sequence (P51956 1-506): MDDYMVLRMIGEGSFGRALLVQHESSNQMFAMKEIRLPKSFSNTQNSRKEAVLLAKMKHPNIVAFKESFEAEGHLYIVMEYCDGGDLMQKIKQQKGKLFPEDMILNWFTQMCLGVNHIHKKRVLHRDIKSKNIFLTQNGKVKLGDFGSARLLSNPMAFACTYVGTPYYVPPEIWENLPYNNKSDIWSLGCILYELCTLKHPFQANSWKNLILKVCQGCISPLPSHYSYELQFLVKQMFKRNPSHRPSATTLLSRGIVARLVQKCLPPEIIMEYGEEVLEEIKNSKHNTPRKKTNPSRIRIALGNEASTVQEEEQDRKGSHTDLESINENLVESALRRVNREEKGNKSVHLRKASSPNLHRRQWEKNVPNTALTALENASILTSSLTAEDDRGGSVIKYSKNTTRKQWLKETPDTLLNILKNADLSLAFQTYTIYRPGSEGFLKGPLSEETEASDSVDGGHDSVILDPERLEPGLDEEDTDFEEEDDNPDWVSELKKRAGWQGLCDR
Description: as §1

CAMK4 = biological target: T5, CAMK4 (Homo sapiens, UniProt Q16566)
T5 construct: purchased ProQinase (Freiburg, Germany)
T5 sequence (Q16566 1-473): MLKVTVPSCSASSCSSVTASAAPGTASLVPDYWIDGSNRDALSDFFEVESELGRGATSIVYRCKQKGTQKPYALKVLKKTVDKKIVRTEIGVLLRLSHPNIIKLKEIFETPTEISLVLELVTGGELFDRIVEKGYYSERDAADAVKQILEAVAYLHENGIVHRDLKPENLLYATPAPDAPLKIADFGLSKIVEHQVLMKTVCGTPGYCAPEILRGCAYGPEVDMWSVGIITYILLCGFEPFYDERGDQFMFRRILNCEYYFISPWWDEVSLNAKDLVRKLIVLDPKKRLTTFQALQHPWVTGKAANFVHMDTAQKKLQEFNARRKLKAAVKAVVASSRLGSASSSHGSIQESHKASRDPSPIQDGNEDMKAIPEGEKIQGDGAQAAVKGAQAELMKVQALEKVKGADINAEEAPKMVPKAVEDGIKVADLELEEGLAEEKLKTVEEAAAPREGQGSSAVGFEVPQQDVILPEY
Description: as §1

BLK = biological target: T6, BLK (Homo sapiens, UniProt P51451)
T6 construct: purchased ProQinase (Freiburg, Germany)
Description: as §1

MKNK1 = biological target: T7, MKNK1 (Homo sapiens, UniProt Q9BUB5)
T7 construct: purchased ProQinase (Freiburg, Germany)
Description: as §1

PKCbeta2 = biological target: T8, PKCbeta2 (Homo sapiens, UniProt P05771)
T8 construct: purchased ProQinase (Freiburg, Germany)
Description: as §1

CDK12/CycK = biological target: T9, CDK12/CycK (Homo sapiens, UniProt Q9NYV4)
T9 construct: purchased ProQinase (Freiburg, Germany)
Description: as §1

CDK2/CycA2 = biological target: T10, CDK2/CycA2 (Homo sapiens, UniProt P24941)
T10 construct: purchased ProQinase (Freiburg, Germany)
Description: as §1

ZAP70 = biological target: T11, ZAP70 (Homo sapiens, UniProt P43403)
T11 construct: purchased ProQinase (Freiburg, Germany)
T11 sequence (P43403 1-619): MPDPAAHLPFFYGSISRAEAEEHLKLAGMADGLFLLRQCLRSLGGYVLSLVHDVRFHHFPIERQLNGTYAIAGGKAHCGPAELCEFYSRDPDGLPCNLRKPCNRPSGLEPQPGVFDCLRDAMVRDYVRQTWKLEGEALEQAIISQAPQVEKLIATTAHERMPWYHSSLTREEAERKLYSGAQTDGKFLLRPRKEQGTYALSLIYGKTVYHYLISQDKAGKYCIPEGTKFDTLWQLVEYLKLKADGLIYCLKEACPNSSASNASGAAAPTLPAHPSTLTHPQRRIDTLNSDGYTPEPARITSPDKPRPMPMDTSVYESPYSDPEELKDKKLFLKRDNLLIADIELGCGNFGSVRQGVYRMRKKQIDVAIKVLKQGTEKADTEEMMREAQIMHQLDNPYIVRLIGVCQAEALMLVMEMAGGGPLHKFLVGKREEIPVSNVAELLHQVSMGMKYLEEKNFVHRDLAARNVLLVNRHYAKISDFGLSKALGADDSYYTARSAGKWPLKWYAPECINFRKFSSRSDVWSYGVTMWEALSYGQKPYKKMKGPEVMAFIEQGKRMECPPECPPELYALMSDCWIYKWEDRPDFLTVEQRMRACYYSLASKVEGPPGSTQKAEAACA
Description: as §1

T7 sequence (Q9BUB5 whole entry): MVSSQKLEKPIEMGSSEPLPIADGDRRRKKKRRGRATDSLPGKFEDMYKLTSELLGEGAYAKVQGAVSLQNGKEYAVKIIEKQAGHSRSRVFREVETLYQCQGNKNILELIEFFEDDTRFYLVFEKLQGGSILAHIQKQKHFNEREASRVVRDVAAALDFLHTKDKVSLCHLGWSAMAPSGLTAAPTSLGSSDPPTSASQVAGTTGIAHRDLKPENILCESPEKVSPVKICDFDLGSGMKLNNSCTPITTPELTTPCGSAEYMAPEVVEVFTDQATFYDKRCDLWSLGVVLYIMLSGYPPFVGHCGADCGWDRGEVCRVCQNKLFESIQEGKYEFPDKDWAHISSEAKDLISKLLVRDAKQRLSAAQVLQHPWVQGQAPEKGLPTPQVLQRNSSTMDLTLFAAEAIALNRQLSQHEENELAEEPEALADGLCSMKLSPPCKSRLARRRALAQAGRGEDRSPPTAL
T8 sequence (P05771 1-673 isoform P05771-2): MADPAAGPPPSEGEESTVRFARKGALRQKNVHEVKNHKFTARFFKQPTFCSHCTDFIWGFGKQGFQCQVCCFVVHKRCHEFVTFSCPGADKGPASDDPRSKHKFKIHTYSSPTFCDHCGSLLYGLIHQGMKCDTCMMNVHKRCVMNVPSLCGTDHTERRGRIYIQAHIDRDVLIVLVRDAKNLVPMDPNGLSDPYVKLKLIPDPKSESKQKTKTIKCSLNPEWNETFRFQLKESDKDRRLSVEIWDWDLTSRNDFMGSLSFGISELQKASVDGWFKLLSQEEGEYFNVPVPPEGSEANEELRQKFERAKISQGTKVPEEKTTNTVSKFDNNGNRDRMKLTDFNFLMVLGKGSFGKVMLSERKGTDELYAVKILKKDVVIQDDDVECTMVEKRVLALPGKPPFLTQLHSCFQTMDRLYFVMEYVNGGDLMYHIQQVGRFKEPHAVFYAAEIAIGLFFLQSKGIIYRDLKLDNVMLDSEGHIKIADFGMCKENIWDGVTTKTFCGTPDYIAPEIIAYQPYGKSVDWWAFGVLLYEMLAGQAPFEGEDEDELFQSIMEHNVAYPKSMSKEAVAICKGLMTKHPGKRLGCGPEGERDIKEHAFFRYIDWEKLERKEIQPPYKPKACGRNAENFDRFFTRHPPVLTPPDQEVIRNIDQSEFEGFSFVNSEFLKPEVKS
T1 sequence (Q9P289 whole entry): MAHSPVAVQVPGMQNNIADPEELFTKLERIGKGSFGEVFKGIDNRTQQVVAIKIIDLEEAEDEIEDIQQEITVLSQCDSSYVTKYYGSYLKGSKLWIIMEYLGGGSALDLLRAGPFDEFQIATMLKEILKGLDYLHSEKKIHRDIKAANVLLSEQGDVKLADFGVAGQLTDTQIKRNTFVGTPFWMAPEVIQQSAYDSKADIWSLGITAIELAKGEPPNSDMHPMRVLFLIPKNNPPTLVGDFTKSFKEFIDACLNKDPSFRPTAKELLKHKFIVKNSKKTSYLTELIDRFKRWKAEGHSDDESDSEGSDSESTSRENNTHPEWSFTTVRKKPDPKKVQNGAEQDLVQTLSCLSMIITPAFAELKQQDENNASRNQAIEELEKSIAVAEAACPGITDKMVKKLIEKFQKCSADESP
T6 sequence (P51451 whole entry): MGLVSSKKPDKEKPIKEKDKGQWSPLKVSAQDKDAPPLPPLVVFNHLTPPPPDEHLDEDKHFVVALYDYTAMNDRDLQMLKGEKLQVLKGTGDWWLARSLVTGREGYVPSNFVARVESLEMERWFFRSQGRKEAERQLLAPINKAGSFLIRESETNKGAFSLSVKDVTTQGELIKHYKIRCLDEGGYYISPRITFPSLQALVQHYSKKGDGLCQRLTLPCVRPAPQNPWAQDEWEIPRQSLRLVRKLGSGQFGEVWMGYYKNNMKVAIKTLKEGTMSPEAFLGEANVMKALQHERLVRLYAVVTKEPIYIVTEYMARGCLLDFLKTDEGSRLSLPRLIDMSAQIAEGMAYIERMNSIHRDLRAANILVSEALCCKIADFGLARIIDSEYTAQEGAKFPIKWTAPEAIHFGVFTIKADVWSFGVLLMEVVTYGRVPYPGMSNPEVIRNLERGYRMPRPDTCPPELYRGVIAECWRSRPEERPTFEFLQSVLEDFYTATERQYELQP
T9 sequence (Q9NYV4 whole entry): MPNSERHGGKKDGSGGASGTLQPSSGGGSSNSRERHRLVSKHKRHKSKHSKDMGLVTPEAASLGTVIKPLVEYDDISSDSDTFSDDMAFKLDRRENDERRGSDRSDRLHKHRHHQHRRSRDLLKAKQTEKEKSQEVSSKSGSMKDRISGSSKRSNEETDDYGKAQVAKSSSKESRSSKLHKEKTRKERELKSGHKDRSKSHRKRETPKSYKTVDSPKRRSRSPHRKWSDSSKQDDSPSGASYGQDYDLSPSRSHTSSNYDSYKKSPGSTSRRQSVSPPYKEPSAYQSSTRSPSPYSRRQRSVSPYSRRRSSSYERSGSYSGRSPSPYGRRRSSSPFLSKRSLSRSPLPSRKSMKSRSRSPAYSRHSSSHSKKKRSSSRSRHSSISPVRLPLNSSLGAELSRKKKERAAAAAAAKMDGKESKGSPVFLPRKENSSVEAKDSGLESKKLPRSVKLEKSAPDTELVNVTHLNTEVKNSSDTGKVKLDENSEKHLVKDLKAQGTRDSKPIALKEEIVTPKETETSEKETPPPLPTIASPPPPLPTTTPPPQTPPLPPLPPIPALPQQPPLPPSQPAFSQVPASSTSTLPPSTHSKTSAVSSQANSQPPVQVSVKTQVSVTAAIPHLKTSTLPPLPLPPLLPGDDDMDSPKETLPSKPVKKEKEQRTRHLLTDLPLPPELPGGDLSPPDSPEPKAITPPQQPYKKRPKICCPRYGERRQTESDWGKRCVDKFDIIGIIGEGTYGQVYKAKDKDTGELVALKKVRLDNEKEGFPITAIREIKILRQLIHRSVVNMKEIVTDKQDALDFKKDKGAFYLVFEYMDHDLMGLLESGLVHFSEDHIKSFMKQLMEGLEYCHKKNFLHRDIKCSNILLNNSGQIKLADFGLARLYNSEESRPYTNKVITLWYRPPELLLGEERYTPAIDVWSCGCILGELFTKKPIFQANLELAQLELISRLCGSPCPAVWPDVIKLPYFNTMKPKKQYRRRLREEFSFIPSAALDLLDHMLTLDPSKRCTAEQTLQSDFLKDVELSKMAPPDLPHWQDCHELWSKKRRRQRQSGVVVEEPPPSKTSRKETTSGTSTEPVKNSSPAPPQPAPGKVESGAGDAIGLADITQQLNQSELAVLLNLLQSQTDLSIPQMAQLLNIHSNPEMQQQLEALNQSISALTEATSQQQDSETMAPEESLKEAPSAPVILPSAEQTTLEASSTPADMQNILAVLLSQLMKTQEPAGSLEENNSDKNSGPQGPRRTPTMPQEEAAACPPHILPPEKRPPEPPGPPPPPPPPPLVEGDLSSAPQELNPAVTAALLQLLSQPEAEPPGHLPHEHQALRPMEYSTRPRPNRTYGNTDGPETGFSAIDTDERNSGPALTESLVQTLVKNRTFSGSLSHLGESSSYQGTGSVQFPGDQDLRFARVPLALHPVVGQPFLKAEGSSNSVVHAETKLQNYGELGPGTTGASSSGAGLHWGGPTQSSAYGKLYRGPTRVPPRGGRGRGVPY
T9 sequence (O75909 whole entry partner): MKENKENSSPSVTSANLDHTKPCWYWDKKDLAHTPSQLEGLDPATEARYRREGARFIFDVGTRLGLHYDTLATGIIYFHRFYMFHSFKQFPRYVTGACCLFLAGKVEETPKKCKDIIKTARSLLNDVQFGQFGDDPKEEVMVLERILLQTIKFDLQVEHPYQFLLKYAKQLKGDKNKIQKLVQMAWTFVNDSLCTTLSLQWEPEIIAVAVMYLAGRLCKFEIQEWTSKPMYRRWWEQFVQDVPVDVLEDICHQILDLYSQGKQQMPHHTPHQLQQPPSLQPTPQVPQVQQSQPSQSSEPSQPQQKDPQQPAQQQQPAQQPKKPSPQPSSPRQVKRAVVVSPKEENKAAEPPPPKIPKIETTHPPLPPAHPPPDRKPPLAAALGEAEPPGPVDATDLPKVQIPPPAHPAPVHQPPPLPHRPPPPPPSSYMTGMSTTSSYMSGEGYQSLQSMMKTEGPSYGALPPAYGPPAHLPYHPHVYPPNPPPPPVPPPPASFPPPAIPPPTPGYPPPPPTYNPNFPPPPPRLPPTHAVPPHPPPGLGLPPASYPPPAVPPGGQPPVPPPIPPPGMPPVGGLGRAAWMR

SMILES	Residual activity (MST4; 1.0E-05 M)	Residual activity (MST4; 1.0E-06 M)	Residual activity (PIM3; 1.0E-05 M)	Residual activity (PIM3; 1.0E-06 M)	Residual activity (HIPK4; 1.0E-05 M)	Residual activity (HIPK4; 1.0E-06 M)	Residual activity (NEK3; 1.0E-05 M)	Residual activity (NEK3; 1.0E-06 M)	Residual activity (CAMK4; 1.0E-05 M)	Residual activity (CAMK4; 1.0E-06 M)	Residual activity (BLK; 1.0E-05 M)	Residual activity (BLK; 1.0E-06 M)	Residual activity (MKNK1; 1.0E-05 M)	Residual activity (MKNK1; 1.0E-06 M)	Residual activity (PKCbeta2; 1.0E-05 M)	Residual activity (PKCbeta2; 1.0E-06 M)	Residual activity (CDK12/CycK; 1.0E-05 M)	Residual activity (CDK12/CycK; 1.0E-06 M)	Residual activity (CDK2/CycA2; 1.0E-05 M)	Residual activity (CDK2/CycA2; 1.0E-06 M)	other results
O=C(Cc1ccccc1)Nc1ccc(F)c(Nc2ccc3c(c2)CCCCC3=O)c1 [Compound 100]	82 % of control	90 % of control	89 % of control	90 % of control	84 % of control	92 % of control	92 % of control	104 % of control	97 % of control	102 % of control	110 % of control	118 % of control	95 % of control	90 % of control	84 % of control	105 % of control	100 % of control	104 % of control	106 % of control	87 % of control	Residual activity (ZAP70; 1.0E-05 M): 103 % of control; Residual activity (ZAP70; 1.0E-06 M): 118 % of control
O=C(Nc1ccc(F)c(Nc2ccc3c(c2)CCCCC3=O)c1)c1cccc(F)c1 [Compound 109]	80 % of control	92 % of control	102 % of control	89 % of control	91 % of control	95 % of control	97 % of control	96 % of control	89 % of control	97 % of control	82 % of control	82 % of control	91 % of control	92 % of control	90 % of control	97 % of control	99 % of control	105 % of control	94 % of control	83 % of control	Residual activity (ZAP70; 1.0E-05 M): 91 % of control; Residual activity (ZAP70; 1.0E-06 M): 114 % of control
